In patent US20120095022A1, “DERIVATIVES OF 10-AMINO-1,2,3,4-TETRAHYDROPYRIDO[2,1-A]ISOINDOL-6(10BH)-ONES, METHOD FOR PREPARATION THEREOF AND THERAPEUTIC USES THEREOF” (UNIVERSITE D'ORLEANS, priority 2009, published 2012) one finds IC50 and melting point data, which are given here for five compounds.

For one series, the system named is Huh7 (liver). Nature of the series: Cytotoxicity on human cells, automated nuclei counting: Huh7. It counts as cell-based. Conditions: Huh-7, exposed 24 h to 48 h, 0.1 to 25 μM. The method in brief: (§1)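 Read-out: automated imaging analysis. Cells in DMEM or RPMI + 10% FCS + pen-strep, 37° C, 5% CO2; 4.10^3 cells/well, 24 h settling before dosing at increasing concentrations. Vehicle controls: DMSO, max 1%.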

The next series concerns Caco (colon). Description: Cytotoxicity on human cells, automated nuclei counting: Caco. It counts as cell-based. Conditions: exposed 24 h to 48 h, 0.1 to 25 μM. The method in brief:
as §1

The test system of the next series is MDA-MB 231 (breast). Description: Cytotoxicity on human cells, automated nuclei counting: MDA-MB 231. The series is classed as cell-based. Conditions: MDA-MB 231 cells, exposed 24 h to 48 h, 0.1 to 25 μM. A digest of the protocol:
as §1

In another series the test system is HCT 116 (colon). Description: Cytotoxicity on human cells, automated nuclei counting: HCT 116. The series is classed as cell-based. Conditions: HCT 116 cells, exposed 24 h to 48 h, 0.1 to 25 μM. A digest of the protocol: as §1
The next series relates to PC3 (prostate). Nature of the series: Cytotoxicity on human cells, automated nuclei counting: PC3. The settings on record: PC-3, exposed 24 h to 48 h, 0.1 to 25 μM. The series is classed as cell-based. The method in brief:
as §1

For a further series, the system named is NCI (lung). Nature of the series: Cytotoxicity on human cells, automated nuclei counting: NCI. The series is classed as cell-based. Conditions: exposed 24 h to 48 h, 0.1 to 25 μM. The method in brief: as §1
For the next series, the system named is fibroblast. Description: Cytotoxicity on human cells, automated nuclei counting: fibroblast. It counts as cell-based. Conditions: exposed 24 h to 48 h, 0.1 to 25 μM. A digest of the protocol: as §1
For the next series, the target named is T1, CDK5/D25 (Homo sapiens, UniProt Q00535).
T1 construct: made in house
Nature of the series: CDK5 kinase inhibition (33P-ATP, histone H1). It counts as biochemical. The settings on record: buffer C, 30° C., 15 μM ATP, read-out: IC50 μM Kinases CDK5. The method in brief:
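Kinase reactions ran in buffer C (25 mM Mops pH 7.2, 15 mM MgCl2, 1 mM DTT, phosphatase inhibitors) with [33P]-ATP for 30 min at 30° C. Phosphorylated substrate was captured on P81 phosphocellulose filters, washed in phosphoric acid and counted by scintillation.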

Another series deals with GSK-3αβ. Nature of the series: GSK-3 kinase inhibition (GS-1 substrate). Conditions: read-out: IC50 μM Kinases GSK3, buffer A, 30° C., 15 μM ATP.
For the next series, the target named is DYRK1A (Homo sapiens, UniProt Q13627). Description: DYRK1A kinase inhibition (Woodtide substrate).

T1 sequence (Q00535 whole entry): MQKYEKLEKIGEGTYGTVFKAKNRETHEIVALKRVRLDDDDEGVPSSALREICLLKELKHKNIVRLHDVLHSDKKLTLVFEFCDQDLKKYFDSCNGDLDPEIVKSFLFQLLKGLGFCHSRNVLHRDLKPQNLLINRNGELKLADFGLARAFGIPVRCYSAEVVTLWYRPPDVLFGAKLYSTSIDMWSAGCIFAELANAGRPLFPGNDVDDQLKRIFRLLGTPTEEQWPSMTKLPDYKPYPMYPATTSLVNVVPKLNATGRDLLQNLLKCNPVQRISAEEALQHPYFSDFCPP
T1 sequence (Q15078 99-307 partner limits assumed): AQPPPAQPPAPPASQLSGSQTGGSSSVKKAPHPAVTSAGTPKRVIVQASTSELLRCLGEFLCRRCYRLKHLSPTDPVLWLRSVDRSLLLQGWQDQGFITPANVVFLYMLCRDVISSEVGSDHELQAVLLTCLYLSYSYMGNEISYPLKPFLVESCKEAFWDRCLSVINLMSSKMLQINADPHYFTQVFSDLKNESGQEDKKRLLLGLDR

Usually IC50 stands for the point on the concentration scale where inhibition reaches its midpoint. For orientation: melting point means the temperature, or range, at which the solid turns liquid. The compound `O=C1c2cccc(NC(=S)Nc3cnccn3)c2C2CC3(CCN12)SCCS3` (stereo not shown) [Compound 69, 1-(6′-Oxo-3′,4′,6′,10b′-tetrahydro-1′H-spiro[[1,3]dithiolane-2,2′-pyrido[2,1-a]isoindole]-10′-yl)-3-(pyrazin-2-yl)thiourea] showed a melting point of 128 °C. For the same compound, the IC50 with Huh7 (liver) is more than 25 µM. In the series with Caco (colon), this compound gave a concentration for half-maximal inhibition (IC50) of 4 µM. This compound yielded an IC50 in the series with MDA-MB 231 (breast) of 10 µM. The same compound showed an IC50 with HCT 116 (colon) of 15 µM. In the series with PC3 (prostate), this compound gave a half-maximal inhibitory concentration (IC50) of more than 25 µM. Moreover, the IC50 with NCI (lung) is more than 25 µM. The same compound showed a half-maximal inhibitory concentration (IC50) with fibroblast of 25 µM. Also, the 50% inhibitory concentration (IC50) at CDK5/D25 was more than 10 µM. The IC50 on GSK-3αβ is more than 10 µM. The IC50 on DYRK1A was more than 10 µM.
For `O=C1c2cccc(NC(=S)Nc3ccccn3)c2C2CC3(CCN12)SCCS3` (stereo not shown) [Compound 70, 1-(6′-Oxo-3′,4′,6′,10b′-tetrahydro-1′H-spiro[[1,3]dithiolane-2,2′-pyrido[2,1-a]isoindole]-10′-yl)-3-(pyridin-2-yl)thiourea], the melting point was 142 °C. In addition, the half-maximal inhibitory concentration (IC50) in the series on Huh7 (liver) amounted to 15 µM. The compound further gave an IC50 in the series with Caco (colon) of 2 µM. In addition, in the series with MDA-MB 231 (breast), inhibition was half-maximal at 3 µM (IC50). In the series on HCT 116 (colon), this compound came in with a half-inhibitory concentration (IC50) of 2 µM. The same compound registered an IC50 in the series with PC3 (prostate) of more than 25 µM. Also, in the series on NCI (lung), the IC50 amounted to 10 µM. Also, the IC50 with fibroblast was 20 µM. Besides, the half-inhibitory concentration (IC50) on CDK5/D25 was determined as 19 µM. The IC50 on GSK-3αβ came to 2.5 µM. The same compound yielded an IC50 on DYRK1A of 22 µM.
`O=C1c2cccc(NC(=S)Nc3cc[nH]n3)c2C2CC3(CCN12)SCCS3` (stereo not shown) [Compound 71, 1-(6′-Oxo-3′,4′,6′,10b′-tetrahydro-1′H-spiro[[1,3]dithiolane-2,2′-pyrido[2,1-a]isoindole]-10′-yl)-3-(1H-pyrazol-3-yl)thiourea] gave a melting point of 185 °C. In the series with Huh7 (liver), 20 µM corresponded to half-maximal inhibition (IC50). The compound also gave a half-inhibitory concentration (IC50) in the series with Caco (colon) of 15 µM. The IC50 with MDA-MB 231 (breast) was determined as 15 µM. Further, in the series with HCT 116 (colon), the IC50 was found to be 7 µM. The compound also displayed an IC50 in the series on PC3 (prostate) of more than 25 µM. Further, half-maximal inhibition in the series with NCI (lung) (IC50) required 15 µM. Besides, in the series with fibroblast, the IC50 was found to be 25 µM. For the same compound, on CDK5/D25, the IC50 was more than 10 µM. The IC50 at GSK-3αβ was more than 10 µM. Moreover, the concentration for half-maximal inhibition (IC50) on DYRK1A was more than 10 µM.
Compound `O=C1c2cccc(NC(=S)Nc3ncccc3Br)c2C2CC3(CCN12)SCCS3` (stereo not shown) [Compound 74, 1-(3-Bromopyridin-2-yl)-3-(6′-oxo-3′,4′,6′,10b′-tetrahydro-1′H-spiro[[1,3]dithiolane-2,2′-pyrido[2,1-a]isoindole]-10′-yl)thiourea] displayed a melting point of 215 °C. In the series on Huh7 (liver), this compound registered an IC50 of 10 µM. Further, half-maximal inhibition in the series on Caco (colon) (IC50) was put at 20 µM. The 50% inhibitory concentration (IC50) in the series on MDA-MB 231 (breast) is more than 25 µM. Inhibition in the series on HCT 116 (colon) was half-maximal at 25 µM (IC50). Also, inhibition in the series on PC3 (prostate) was half-maximal at 15 µM (IC50). Further, in the series with NCI (lung), half-maximal inhibition (IC50) required 12 µM. The same compound gave a concentration for half-maximal inhibition (IC50) in the series on fibroblast of 25 µM. Further, the IC50 at CDK5/D25 is more than 10 µM. Also, the IC50 at GSK-3αβ was 3 µM. The concentration for half-maximal inhibition (IC50) at DYRK1A was more than 10 µM.
Consider `O=C(Nc1cccc2c1C1CCCCN1C2=O)Nc1ncccc1Br` (stereo not shown) [Compound 75, 1-(3-Bromopyridin-2-yl)-3-(6-oxo-1,2,3,4,6,10b-hexahydropyrido[2,1-a]isoindol-10-yl)urea], for which the melting point was 220 °C. Also, in the series on Huh7 (liver), half-maximal inhibition (IC50) was put at 0.25 µM. Further, in the series with Caco (colon), the IC50 is 5 µM. Besides, the half-inhibitory concentration (IC50) in the series with MDA-MB 231 (breast) came to 1.5 µM. Further, in the series with HCT 116 (colon), the IC50 worked out at 0.4 µM. Further, half-maximal inhibition in the series on PC3 (prostate) (IC50) was put at 7 µM. This compound returned a concentration for half-maximal inhibition (IC50) in the series with NCI (lung) of 2 µM. Also, the IC50 with fibroblast stood at 0.6 µM. In addition, at CDK5/D25, the 50% inhibitory concentration (IC50) was found to be 0.48 µM. For the same compound, the IC50 at GSK-3αβ was found to be 0.17 µM. Further, inhibition against DYRK1A was half-maximal at 3 µM (IC50).
